Data reported in PMC7926980, “The Antiproliferative and Apoptotic Effect of a Novel Synthesized S-Triazine Dipeptide Series, and Toxicity Screening in Zebrafish Embryos” (Molecules, 2021).

Columns and labels:
MCF-7 cells [1] = assay: Annexin V-FITC/PI apoptotic assay by flow cytometry; assay type: cell-based, human; conditions: 2 µM, 48 h; control 8.3%
Procedure: In order to determine the capacity of compound 3a to induce apoptosis, an Annexin V-FITC/PI dual staining assay was performed on the MCF-7 cells by flow cytometry.
Flow cytometry using Annexin V and propidium iodide (PI) was performed in order to detect apoptotic cell death. MCF-7 cells were seeded at a density of 1 × 10^5 cells/well, treated with the vehicle (0.1% (v/v) EtOH) or compound 3a (2 µM), and incubated for 48 h. The cells were then harvested and washed twice in 1X binding buffer, and incubated in the dark for 30 min on ice in Annexin V-containing binding buffer [1:100]. They were then re-suspended in PI-containing binding buffer [1:1000]. The samples were analyzed immediately using a BD Accuri flow cytometer, and GraphPad Prism software version 5.01 was used to analyze the data. Four populations were identified during the assay: Annexin V-negative and PI-negative (Q4, healthy cells), Annexin V-positive and PI-negative (Q3, early apoptosis), Annexin V-positive and PI-positive (Q2, late apoptosis), and Annexin V-negative and PI-positive (Q1, necrosis).
Figure 5 Compound 3a potently induces apoptosis in breast cancer MCF-7 cells (Annexin V/PI Fluorescence-activated cell sorting (FACS)). (A) Flow cytometry analysis of the effect of compound 3a on MCF-7 cells. […] (B) The quantitative analysis of the apoptosis. […]

zebrafish embryos = assay: Zebrafish embryo imaging (morphology, teratogenicity); assay type: in vivo; conditions: 1 mM, embryos at 48 hpf, versus untreated embryos
Source text: The treated embryos had cardiac edema, craniofacial defects, tail lesions, and a delay in embryonic development. These observations are consistent with the findings in the literature.
A Zeiss Observer D1 inverted microscope using Zeiss ZEN software was used to capture the images of the live zebrafish embryos.
Figure 6 Representative images of the zebrafish embryos 48 hpf (A) control or (B) treated.

MCF-7 cells [2] = assay: Cell cycle analysis by PI staining flow cytometry; assay type: cell-based, human; conditions: 2 µM, 48 h
Procedure: The mechanism underlying the growth-inhibitory effect of 3a was further examined. The effect of 3a on cell cycle events in MCF-7 cells, after incubation at 2 µM for 48 h, was analyzed by a DNA flow cytometry assay of propidium iodide (PI) staining (Figure 4A). Compound 3a induced a statistically significant arrest of MCF-7 cells in the G2/M stage (36.8%) compared to the untreated cell line (11.5%) (Figure 4B).
The MCF-7 cells were treated with compound 3a (2 µM) and incubated for 48 h. After trypsinization, the cells were collected and centrifuged at 800× g for 15 min. They were then fixed in ice-cold 70% ethanol overnight at −20 °C. The fixed cells were centrifuged at 800× g for 15 min and stained with 50 μg/mL PI, containing 50 μg/mL DNase-free RNase A, at 37 °C for 30 min. The DNA content of the cells (10,000 cells) was analyzed by flow cytometer at 488 nm, using a FACSCalibur flow cytometer (BD Biosciences, San Jose, CA, USA).
Figure 4 (A) Effect of compound 3a on the cell cycle and apoptosis in breast cancer MCF-7 cells. The cells were treated with either a vehicle (0.1% ethanol (v/v)) or 3a (2 µM) for 48 h. The cell cycle analysis was performed on histograms of gated counts per DNA area (FL2-A). (B) Quantitative analysis of 4N (G2/M), 2N (G0G1), >2N (S) and <2N (sub-G1). The DNA content was determined with CellQuest software. […]

COC(=O)CNC(=O)CNc1nc(Nc2ccccc2)nc(N2CCOCC2)n1 [Compound 3a, Methyl (4-morpholino-6-(phenylamino)-1,3,5-triazin-2-yl) glycylglycinate]
Annexin V-positive cells (total apoptotic cells) (MCF-7 cells [1]): 37.4% | embryonic abnormality or morphological difference in zebrafish embryo images (zebrafish embryos): did not indicate any embryonic abnormality or morphological difference | cells in the sub-G1 phase (MCF-7 cells [2]; control 3.7%): 17.3% | MCF-7 cells in the G2/M stage (MCF-7 cells [2]; untreated 11.5%): 36.8%
